19 compounds from patent publication US8399459B2, “1,4 oxazines as BACE1 and/or BACE2 inhibitors” (Hoffmann-La Roche Inc., priority 2011, dated 2013) can be followed below.

The term IC50 denotes the concentration at which inhibition is half-maximal. A high value points to weaker potency in that assay.

Structures are written as SMILES. Structures can show the parent of a compound that is named as a salt.

The target of one test is T1, BACE1 (Homo sapiens, UniProt P56817).
T1 construct: Human HEK293 cells which are stably transfected with a vector expressing a cDNA of the human APP wt gene (APP695); endogenous in cells; host or cells: HEK293 (human), stably transfected with human APP695 wt only
T1 sequence (P56817 46-501): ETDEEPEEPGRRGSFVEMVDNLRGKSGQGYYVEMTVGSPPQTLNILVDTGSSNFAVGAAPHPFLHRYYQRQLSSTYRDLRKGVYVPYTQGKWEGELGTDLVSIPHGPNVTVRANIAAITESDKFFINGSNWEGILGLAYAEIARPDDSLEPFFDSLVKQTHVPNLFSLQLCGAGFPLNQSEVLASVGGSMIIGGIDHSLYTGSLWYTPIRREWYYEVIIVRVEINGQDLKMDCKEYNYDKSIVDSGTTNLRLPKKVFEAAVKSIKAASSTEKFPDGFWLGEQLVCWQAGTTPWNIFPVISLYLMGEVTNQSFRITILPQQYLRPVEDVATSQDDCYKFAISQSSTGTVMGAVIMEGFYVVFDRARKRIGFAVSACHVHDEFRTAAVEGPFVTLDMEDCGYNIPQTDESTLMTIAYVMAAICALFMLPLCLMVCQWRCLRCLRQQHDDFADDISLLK
In words: Cellular Aβ-lowering assay (Aβ40 ELISA, HEK293 cells expressing human APP695). To be noted: HEK293 cells stably expressing human APP695; Aβ40 in supernatant after 18-20 hrs. The format is cell-based. The protocol: Cellular Aβ-Lowering Assay:
Human HEK293 cells which are stably transfected with a vector expressing a cDNA of the human APP wt gene (APP695) were used to assess the potency of the compounds in a cellular assay. The cells were seeded in 96-well microtiter plates in cell culture medium (Iscove, plus 10% (v/v) fetal bovine serum, glutamine, penicillin/streptomycin) to about 80% confluence and the compounds were added at a 10× concentration in 1/10 volume of medium without FCS containing 8% DMSO (final concentration of DMSO was kept at 0.8% v/v). After 18-20 hrs incubation at 37° C. and 5% CO2 in a humidified incubator the culture supernatant was harvested for the determination of Aβ40 concentrations. 96well ELISA plates (e.g., Nunc MaxiSorb) were coated with monoclonal antibody which specifically recognize the C-terminal end of Aβ40 (Brockhaus et al., NeuroReport 9, 1481-1486; 1998). After blocking of non-specific binding sites with e.g. 1% BSA and washing, the culture supernatants were added in suitable dilutions together with a horseradish peroxidase-coupled Aβ detection antibody (e.g., antibody 4G8, Senetek, Maryland Heights, Mo.) and incubated for 5 to 7 hrs. Subsequently the wells of the microtiter plate were washed extensively with Tris-buffered saline containing 0.05% Tween 20 and the assay was developed with tetramethylbenzidine/H2O2 in citric acid buffer. After stopping the reaction with one volume 1 N H2SO4 the reaction was measured in an ELISA reader at 450 nm wavelength. The concentrations of Aβ in the culture supernatants were calculated from a standard curve obtained with known amounts of pure Aβ peptide.

Another test has as its target T2, BACE2 (Rattus norvegicus, UniProt Q6IE75).
T2 construct: endogenous cellular BACE2 in the Ins1e rat cell line; endogenous in cells; host or cells: INS-TMEM27 (INS1e-derived rat cell line with doxycycline-inducible full-length human TMEM27)
T2 sequence (Q6IE75 63-514): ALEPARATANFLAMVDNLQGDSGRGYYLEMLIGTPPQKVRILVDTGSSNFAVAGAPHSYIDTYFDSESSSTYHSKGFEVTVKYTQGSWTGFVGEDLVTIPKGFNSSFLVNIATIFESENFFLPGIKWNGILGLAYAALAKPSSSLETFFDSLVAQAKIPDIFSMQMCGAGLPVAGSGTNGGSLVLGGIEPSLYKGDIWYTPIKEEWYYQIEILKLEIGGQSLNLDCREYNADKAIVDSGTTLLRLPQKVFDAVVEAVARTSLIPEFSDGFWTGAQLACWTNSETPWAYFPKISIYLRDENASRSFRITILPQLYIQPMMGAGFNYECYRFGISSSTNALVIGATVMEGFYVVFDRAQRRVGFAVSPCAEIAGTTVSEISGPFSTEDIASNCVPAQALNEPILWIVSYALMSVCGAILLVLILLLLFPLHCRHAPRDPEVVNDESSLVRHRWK
In words: Assay for BACE inhibition by measuring cellular TMEM27 cleavage (INS-TMEM27 cells, ELISA). Format: cell-based. The note with it: INS-TMEM27 (INS1e-derived) cells; shed TMEM27 by ELISA. The source says:
Assay for BACE Inhibition by Measuring Cellular TMEM27 Cleavage:
The assay uses the principle of inhibition of human TMEM27 cleavage by endogenous cellular BACE2 in the Ins1e rat cell line and shedding from the cell surface into the culture medium, followed by detection in an ELISA assay. Inhibition of BACE2 prevents the cleavage and shedding in a dose-dependent manner.
The stable cell line “INS-TMEM27” represents an INS1e-derived cell line with inducible expression (using the TetOn system) of full-length hTMEM27 in a doxycycline-dependent manner. The cells are cultured throughout the experiment in RPMI1640+Glutamax (Invitrogen) Penicillin/Streptomycin, 10% Fetal bovine serum, […], […], 100 micrograms/ml G418 and 100 microgram/ml hygromycin and are grown inadherent culture at 37° C. in a standard CO2 cell culture incubator.
INS-TMEM27 cells are seeded in 96-well plates. After 2 days in culture, BACE2 inhibitor is added in a range of concentrations as required by the assay and after a further two hours, doxycycline is added to a final concentration of 500 ng/ml. The cells are incubated for a further 46 hours and the supernatant harvested for detection of shed TMEM27.
An ELISA assay (using a pair of mouse anti-human-TMEM27 antibodies, raised against the extracellular domain of TMEM27) is used for detection of TMEM27 in the culture medium. An EC50 for BACE2 inhibition is calculated using the ELISA readout for each inhibitor concentration with standard curve-fitting software such as XLFit for the Excel spreadsheet program.
(An ELISA detects its analyte on a solid surface through an enzyme-linked reagent.)

As for `Cc1cc(Cl)cc(-c2cccc(C3(C)COCC(N)=N3)c2)c1` (centres unmarked) [Example 9, 5-(3′-Chloro-5′-methyl-biphenyl-3-yl)-5-methyl-5,6-dihydro-2H-[1,4]oxazin-3-ylamine], the concentration for half-maximal inhibition (IC50) against BACE1 worked out at 2480 nM; against BACE2 it was 1110 nM.
Taken in the same sequence, the figures for `C[C@@]1(c2cc(-c3cc(Cl)cc(Cl)c3)ccc2F)COCC(N)=N1` [Example 37, (R)-5-(3′,5′-Dichloro-4-fluoro-biphenyl-3-yl)-5-methyl-5,6-dihydro-2H-[1,4]oxazin-3-ylamine] were 510 nM and 120 nM.
Consider `CC1(c2cccc(C#Cc3ccc(Cl)cn3)c2)COCC(N)=N1` (centres unmarked) [Example 43, 5-[3-(5-Chloro-pyridin-2-ylethynyl)-phenyl]-5-methyl-5,6-dihydro-2H-[1,4]oxazin-3-ylamine], for which, at BACE1, the half-inhibitory concentration (IC50) came out at 300 nM. That is a sub-micromolar value.
At BACE1, `Cc1cc(C2(c3cccc(-c4cccnc4)c3)COCC(N)=N2)ccc1OC(F)F` (centres unmarked) [Example 44, 5-(4-Difluoromethoxy-3-methyl-phenyl)-5-(3-pyridin-3-yl-phenyl)-5,6-dihydro-2H-[1,4]oxazin-3-ylamine] showed a half-maximal inhibitory concentration (IC50) of 60 nM.
Still for that read-out and setting: the value for `Cc1cc(C2(c3cccc(-c4ccc(Cl)nc4)c3)COCC(N)=N2)ccc1OC(F)F` (centres unmarked) [Example 45, 5-[3-(6-Chloro-pyridin-3-yl)-phenyl]-5-(4-difluoromethoxy-3-methyl-phenyl)-5,6-dihydro-2H-[1,4]oxazin-3-ylamine] was 360 nM.
Consider `Cc1cc(C2(c3cccc(-c4cncc(Cl)c4)c3)COCC(N)=N2)ccc1OC(F)F` (centres unmarked) [Example 46, 5-[3-(5-Chloro-pyridin-3-yl)-phenyl]-5-(4-difluoromethoxy-3-methyl-phenyl)-5,6-dihydro-2H-[1,4]oxazin-3-ylamine], for which the IC50 on BACE1 was 40 nM; against BACE2, 30 nM.
`NC1=NC(c2ccc(OC(F)F)nc2)(c2cccc(-c3cncc(Cl)c3)c2)COC1` (centres unmarked) [Example 47, 5-[3-(5-Chloro-pyridin-3-yl)-phenyl]-5-(6-difluoromethoxy-pyridin-3-yl)-5,6-dihydro-2H-[1,4]oxazin-3-ylamine] came in with a concentration for half-maximal inhibition (IC50) at BACE1 of 110 nM.
With `COc1cncc(-c2cccc(C3(c4ccc(OC(F)F)nc4)COCC(N)=N3)c2)c1` (centres unmarked) [Example 48, 5-(6-Difluoromethoxy-pyridin-3-yl)-5-[3-(5-methoxy-pyridin-3-yl)-phenyl]-5,6-dihydro-2H-[1,4]oxazin-3-ylamine], the half-inhibitory concentration (IC50) at BACE1 worked out at 30 nM.
Take `CC1(c2cccc(-c3nc4ccc(Cl)cc4o3)c2)COCC(N)=N1` (centres unmarked) [Example 49, 5-[3-(6-Chloro-benzooxazol-2-yl)-phenyl]-5-methyl-5,6-dihydro-2H-[1,4]oxazin-3-ylamine]: the half-inhibitory concentration (IC50) against BACE1 and against BACE2 was 200 nM in each case.
With `CC1(c2cccc(-c3nc4cc(Cl)ccc4[nH]3)c2)COCC(N)=N1` (centres unmarked) [Example 50, 5-[3-(5-Chloro-1H-benzoimidazol-2-yl)-phenyl]-5-methyl-5,6-dihydro-2H-[1,4]oxazin-3-ylamine], on BACE1, the IC50 came out at 1280 nM.
Still for that read-out and setting: next, `NC1=NC(c2cc(-c3cncnc3)ccc2F)(C(F)F)COC1` (centres unmarked) [Example 51, 5-Difluoromethyl-5-(2-fluoro-5-pyrimidin-5-yl-phenyl)-5,6-dihydro-2H-[1,4]oxazin-3-ylamine]: 770 nM.
`NC1=NC(c2cc(-c3cncc(Cl)c3)ccc2F)(C(F)F)COC1` (centres unmarked) [Example 52, 5-[5-(5-Chloro-pyridin-3-yl)-2-fluoro-phenyl]-5-difluoromethyl-5,6-dihydro-2H-[1,4]oxazin-3-ylamine] had a 50% inhibitory concentration (IC50) against BACE1 of 280 nM.
Turning to `CC1(c2cccc(-c3nc4cc(Cl)ccc4o3)c2)COCC(N)=N1` (centres unmarked) [Example 53, 5-[3-(5-Chloro-benzooxazol-2-yl)-phenyl]-5-methyl-5,6-dihydro-2H-[1,4]oxazin-3-ylamine], it took 1490 nM to reach half-maximal inhibition against BACE1 (IC50).
On the same count and under the same terms, next, `CC1(c2cccc(C#Cc3ccccc3)c2)COCC(N)=N1` (centres unmarked) [Example 54, 5-Methyl-5-(3-phenylethynyl-phenyl)-5,6-dihydro-2H-[1,4]oxazin-3-ylamine]: 1470 nM; `CC1(c2cccc(C#Cc3ccsc3)c2)COCC(N)=N1` (centres unmarked) [Example 55, 5-Methyl-5-(3-thiophen-3-ylethynyl-phenyl)-5,6-dihydro-2H-[1,4]oxazin-3-ylamine]: 2780 nM; `COc1cc(-c2cccc(C3(C)COCC(N)=N3)c2)cc(F)c1F` (centres unmarked) [Example 56, 5-(4′,5′-Difluoro-3′-methoxy-biphenyl-3-yl)-5-methyl-5,6-dihydro-2H-[1,4]oxazin-3-ylamine formate]: 2550 nM.
On the same count and under the same terms, the value for `CC1(c2cccc(-c3cc(C(F)(F)F)cc(C(F)(F)F)c3)c2)COCC(N)=N1` (centres unmarked) [Example 57, 5-(3′,5′-Bis-trifluoromethyl-biphenyl-3-yl)-5-methyl-5,6-dihydro-2H-[1,4]oxazin-3-ylamine formate] was 6720 nM.
In the case of `CC1(c2cccc(-c3ccc(F)c(OCC(F)(F)F)c3)c2)COCC(N)=N1` (centres unmarked) [Example 58, 5-[4′-Fluoro-3′-(2,2,2-trifluoro-ethoxy)-biphenyl-3-yl]-5-methyl-5,6-dihydro-2H-[1,4]oxazin-3-ylamine formate], at BACE1, 8340 nM corresponded to half-maximal inhibition (IC50).
For `COc1ccc2ccc(-c3cccc(C4(C)COCC(N)=N4)c3)cc2c1` (centres unmarked) [Example 59, 5-[3-(7-Methoxy-naphthalen-2-yl)-phenyl]-5-methyl-5,6-dihydro-2H-[1,4]oxazin-3-ylamine formate], on BACE1, the IC50 amounted to 4390 nM. Compared with the last compound, the IC50 is about 1.9-fold lower.
